Test results taken from ChEMBL document CHEMBL1201862, “PubChem BioAssay data set” (2004).
“And” between values parts separate entries of the source, which are not always exact repeats. Equal values may be shown once.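 Each compound was tested at five concentrations against cells in 96-well plates for 48 hours. GI50 = concentration required for 50% inhibition of growth.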 The source made the active and inactive calls. Cut-off read from the data, not from the text of the source: active = GI50 up to about 1.1 µM and inactive = higher.

Experiments:
Experiment in all cases: growth of human tumour cells (NCI), 48 h
[1] = test system: DMS-114
[2] = test system: DMS-273
[3] = test system: HOP-18
[4] = test system: KM-20L2
[5] = test system: LXFL 529
[6] = test system: RXF 631
[7] = test system: XF498
[8] = test system: DLD-1
[9] = test system: T47D

Measured: GI50

COC(=O)C(Cc1nc2ccc(Cl)cc2nc1O)/C(=N/NC(N)=O)C(=O)Nc1ccc(Cl)cc1 (configuration not stated)
inactive: [1] > 100 µM | [2] > 100 µM | [3] > 100 µM | [4] > 100 µM | [5] > 100 µM | [6] > 100 µM | [7] > 100 µM

CN(C)[C@@H]1C(O)=C(C(N)=O)C(=O)[C@@]2(O)C(O)=C3C(=O)c4c(O)cccc4C[C@H]3C[C@@H]12
inactive: [8] 2.66 µM | [1] 2.52 µM | [2] 2.17 µM | [3] 1.79 µM | [4] 2.19 µM | [5] 1.92 µM

Cn1cnc([N+](=O)[O-])c1Sc1nnc(-c2cccnc2)n1C
inactive: [8] 18.8 µM | [1] 18.9 µM | [2] 80.2 µM | [3] 14.6 µM | [4] 33.9 µM | [5] 12 µM | [9] 12.6 µM | [7] 20.4 µM

O=C1OC(CC(=O)c2ccc(Cl)cc2)C(Cl)=C1Cl (configuration not stated)
inactive: [8] 52.6 µM | [1] > 100 µM | [2] > 100 µM | [3] > 100 µM | [4] > 100 µM | [5] > 100 µM | [7] > 100 µM

COc1nc(=O)n(COC(CO)CN2C(=O)c3ccccc3C2=O)cc1Cc1cccc(OCc2ccccc2)c1 (configuration not stated)
inactive: [8] 28.3 µM | [1] 22 µM | [2] 19.4 µM | [3] 27.5 µM | [4] 26.2 µM | [5] 30.1 µM

CN1c2ccccc2N(C)C2C1N(C)c1ccccc1N2C (configuration not stated)
inactive: [8] 14.1 µM | [1] 5.71 µM | [2] 8.75 µM | [4] 15.7 µM | [5] 12.6 µM | [6] 37.1 µM | [7] 7 µM

COC(=O)c1ccc(CS(=O)(=O)c2ccccc2)cc1
inactive: [8] 91.8 µM | [1] 64.3 µM | [2] 45.4 µM | [3] > 100 µM | [4] 61.5 µM | [5] > 100 µM | [6] > 100 µM | [7] > 100 µM

O=c1c(Cl)c(Cl)cnn1-c1ccccc1
inactive: [8] 1.44 µM and 2.35 µM | [1] 2.33 µM and 1.56 µM | [3] 8.53 µM and 5.19 µM | [5] 1.67 µM and 1.71 µM | [9] 4.33 µM and 2.44 µM | [7] 2.46 µM

Cc1nc2ccncc2[nH]1
inactive: [8] > 100 µM | [1] > 100 µM | [2] > 100 µM | [4] > 100 µM | [5] > 100 µM | [6] > 100 µM | [7] 58.6 µM

CCC(=O)OCOc1ccc(/C=C2\CCC(CN(C)C)C2=O)cc1 (configuration not stated)
inactive: [8] 2.19 µM | [1] 18.3 µM | [2] 3.97 µM | [3] 15.4 µM | [4] 13.1 µM | [5] 2.94 µM | [6] 8.34 µM | [9] 3.52 µM | [7] 2.14 µM

COC1C(CN[N+](=O)CC2OC3OC(C)(C)OC3C2OC)OC2OC(C)(C)OC21 (configuration not stated)
inactive: [8] > 100 µM | [1] > 100 µM | [2] > 100 µM | [3] > 100 µM | [6] > 100 µM

CC(=O)c1c(O)ccc2c1CC(CC=O)O2 (configuration not stated)
inactive: [8] 32.7 µM | [1] 20.1 µM | [4] > 100 µM | [5] 42.9 µM | [6] 65 µM | [7] > 100 µM

COc1cc2c(cc1O)[C@H](C)C(c1ccc(Cl)cc1)O2 (some centres not stated)
inactive: [8] 24.8 µM | [1] 13.9 µM | [2] 16.5 µM | [3] 36.2 µM | [4] 23.1 µM | [5] 17.2 µM | [6] 26 µM | [7] 15.5 µM

CN1N=C2c3ccccc3CC[C@H]2C1c1ccccc1 (some centres not stated)
inactive: [8] 41.8 µM | [1] 22.5 µM | [2] 26.6 µM | [3] > 100 µM | [4] 36.9 µM | [5] 15.4 µM

Cc1nc(C(N)=S)sc1C(=O)CC(=O)C(=O)Nc1ccccc1[N+](=O)[O-]
inactive: [8] > 100 µM | [1] > 100 µM | [2] > 100 µM | [3] > 100 µM | [4] > 100 µM | [5] > 100 µM | [6] > 100 µM

COC(=O)CCC(NC(=S)N/N=C/c1ccccn1)C(=O)OC (configuration not stated)
inactive: [8] > 100 µM | [1] > 100 µM | [3] > 100 µM | [4] > 100 µM | [5] > 100 µM | [6] > 100 µM | [7] > 100 µM

NC(CCCC(N)P(=O)(O)O)P(=O)(O)O (configuration not stated)
inactive: [8] > 100 µM | [1] > 100 µM | [2] > 100 µM | [3] > 100 µM | [5] > 100 µM | [6] > 100 µM

Cc1c(C(=O)CC(=O)C(=O)Nc2ccccc2C(F)(F)F)[n+]([O-])c2ccccc2[n+]1[O-]
inactive: [1] 11.5 µM | [2] 25.8 µM | [3] 2.2 µM | [4] 33.7 µM | [5] 20.8 µM | [7] 9.44 µM

O=C(Cc1ccccc1)NN1C(=O)C(Cl)C1c1ccc([N+](=O)[O-])cc1 (configuration not stated)
inactive: [8] > 100 µM | [1] 28.6 µM | [2] > 100 µM | [3] > 100 µM | [4] > 100 µM | [5] 95.9 µM | [7] > 100 µM

Cc1cc(=O)n2c3c(c4c(cc13)c(CO)cc(=O)n4C)OC2
inactive: [8] 15.7 µM | [1] 14.1 µM | [2] 8.85 µM | [3] 19.5 µM | [4] 29.9 µM | [5] 5.07 µM | [6] 5.6 µM | [7] 10.7 µM

Cc1cccc(C(C)C)c1N1C(=O)C(=O)C(c2nc3ccccc3o2)C(=O)C1=O
inactive: [8] 39.4 µM | [1] 24.7 µM | [2] 93.8 µM | [3] > 100 µM | [4] 35.4 µM | [5] 61.1 µM | [6] 27.2 µM | [7] 21.1 µM

CC1C[C@@H]2C(=O)NC(=O)[C@@H]2c2c1c1ccccc1n2C (some centres not stated)
inactive: [8] > 100 µM | [1] > 100 µM | [2] > 100 µM | [4] > 100 µM | [5] > 100 µM | [6] > 100 µM | [7] > 100 µM
